Measured values from US20160067161A1, “COSMETIC OR PHARMACEUTICAL COMPOSITION FOR RESISTING SKIN AGEING THROUGH AN ANTI-INFLAMMATORY ACTION” (GIULIANI S.P.A., priority 2013, published 2016).

Experiments:
TNF-α = test: Anti-inflammatory test: TNF-α gene expression by qRT-PCR in LPS-treated NCTC2544 keratinocytes; format: cell-based, human; settings: for TNF-α expression: NCTC2544 cells + LPS 5 μg/ml, 16 hours of treatment
Method: An immortalized line of human keratinocytes NCTC2544 is used (Perry, V. P., Sanford, K. K., Evans, V. J., Hyatt, G. W., Earle, W. R., 1957: Establishment of clones of epithelial cells from human skin. J Natl Cancer Inst. 18 (5): 709-717) cultured in sterile flasks ([…]), incubated at 37° C. in a humid atmosphere at 5% CO2 in MEM (Minimum Essential Medium) added with bovine fetal serum (FBS), 2 mm L-glutamine, 1% non-essential amino acids, in the presence of 1% penicillin and streptomycin.
A 1:3 split is done every 2 days upon achieving the monolayer by washing with 1× PBS (phosphate buffer without Ca^2+ and Mg^2+) and detachment of cells with a trypsin-EDTA solution at 37° C. for 2 minutes.
Negative control: human keratinocytes NCTC2544 cultured in EMEM (EBSS) at 2.5% FBS, supplemented with 1% L-glutamine 2 mM, 1% solution of amino acids and 1% mixture of penicillin (10,000 U/ml)/streptomycin (10,000 Ug/ml) at 37° C., 5% CO2. Positive control: human keratinocytes NCTC2544 treated with lipopolysaccharide (LPS, 5 μg/ml) in EMEM (EBSS) at 2.5% FBS, supplemented with 1% L-glutamine 2 mM, 1% solution of amino acids and 1% mixture of penicillin (10,000 U/ml)/streptomycin (10,000 Ug/ml) at 37° C., 5% CO2.
The gene expression of TNF-α on NCTC2544 cells treated with the samples was evaluated by qRT-PCR.
The analysis of gene expression involves four steps:
1. Treatment of cells with the samples for 16 and 24 hours;
3. Retrotranscription in cDNA;
In the experimental conditions, in relation with the results obtained in a previous MTT test, samples of spermidine and N^1-methyl-spermidine were tested at the following concentrations: 1 μM, 500 nM and 1 mM (final concentration in the medium). Said positive and negative controls were also tested.
When the human keratinocyte cells NCTC 2544 have reached about 80% confluence, they are detached with trypsin/EDTA and seeded at a density of 1×10^6 cells/ml in 12-well plates and incubated at 37° C., 5% CO2 (24 h).
The above samples of spermidine and N^1-methyl-spermidine were dissolved in EMEM, supplemented with 2.5% FCS, 1% 2 mM L-glutamine, 1% NEAA solution and 1% penicillin (10,000 U/ml)/streptomycin ([…]).
The controls, containing only culture medium (negative control) and culture medium plus LPS ([…]) (positive control), were included in each plate. The cells were exposed to the action of the samples of spermidine and N^1-methyl-spermidine at the above concentrations of 1 μM, 500 nM and 1 mM: a total of six samples.
LPS at a concentration of 5 μg/ml was added to each well (except in the negative control). Each sample was tested in replicate.
With reference to the graphs in FIGS. 4 and 5, samples of further compounds of the invention as specified below were subjected to anti-inflammatory test on an immortalized line of human keratinocytes NCTC2544 substantially as described above, to the general part whereof reference shall be made.
The controls containing only culture medium (negative control) and culture medium plus LPS (5 μg/ml) (positive control), were included in each plate.
The cells were exposed to the action of samples of the compounds N^1-ethylspermidine, N^1-propylspermidine, N^1-isobutylspermidine at the concentrations of 1 nM and 1 μM.
The gene expression data were obtained by RT-PCR.

NCTC 2544 cells = test: ROS antioxidant test (DCFH-DA spectrofluorometry) on NCTC 2544 cells; format: cell-based, human; settings: 500 μM, 1.5 hours (FIG. 3); for decrease in intracellular concentration of ROS produced compared with H2O2 control: test compound at 500 nM, 1 μM, 1 mM, α-tocopherol 250 μg/ml (580 μM)
Source text: Samples of a compound of the invention, N^1-methylspermidine trihydrochloride salt, i.e. N-(3-aminopropyl)-N^1-methyl-1,4-butanediamine 3HCl, were subjected to the following antioxidant test to reactive oxygen species (ROS).
The production of ROS was monitored spectrofluorometrically using 2′,7′-dichlorofluorescein diacetate (DCFH-DA), as described by Tobi et al. (Tobi S E, Paul N, T McMillan J. J Photochem Photobiol, B 2000: 57: 102-112).
The NCTC 2544 cells (about 80% confluence) were detached with trypsin/EDTA and seeded at a density of 5×10^4 cells per well in 96-well plates. Subsequently, the cells were treated with samples of N^1-methylspermidine, at the following concentrations: 500 nM, 1 μm and 500 μm, 1 mM (final concentration in the culture medium).
α-tocopherol (250 μg/ml, 580 μm) was used as a comparison of the antioxidant activity.
The plates were incubated at 37° C. in 5% CO2 for 1.5 hours. Cells cultured on basal medium with 2.5% FBS were used as a control.
The results are shown in the graph of FIG. 3, wherein N^1-methylspermidine trichydrochloride salt is for brevity indicated as ‘methylspermidine’.

With `CN(CCCN)CCCCN` [N^1-methylspermidine, N-(3-aminopropyl)-N^1-methyl-1,4-butanediamine] the “anti-inflammatory effects after 24 hours compared with 16 hours” value (TNF-α; 24 hours of treatment (FIG. 2)) was “remain almost unchanged”, the “anti-inflammatory effect compared with spermidine” value (TNF-α; 24 hours of treatment, 500 nM (FIG. 2)) was “significantly higher anti-inflammatory effect” and the TNF-α expression (TNF-α; 1 nM (FIG. 1)) was 7.94%. The TNF-α expression (TNF-α; 500 nM (FIG. 1)) was 1.52% and the “anti-inflammatory effect (TNF-α gene expression)” value (TNF-α; all concentrations examined, 16 and 24 hours) was “anti-inflammatory effect”.
In the case of `Cc1c(C)c2c(c(C)c1O)CC[C@@](C)(CCC[C@H](C)CCC[C@H](C)CCCC(C)C)O2` [α-tocopherol, reference compound], the “decrease in intracellular concentration of ROS produced compared with H2O2 control” value (NCTC 2544 cells) is reported as “decrease substantially comparable”.
Compound `NCCCCNCCCN` [spermidine, reference compound] has a TNF-α expression (TNF-α; 1 nM (FIG. 1)) of 13.99%.
In the case of `CN(CCCN)CCCCN.Cl.Cl.Cl` [N-(3-aminopropyl)-N^1-methyl-1,4-butanediamine 3HCl], the “antioxidant activity compared with α-tocopherol (580 μM)” value (NCTC 2544 cells) is reported as “higher antioxidant activity” and the “decrease in intracellular concentration of ROS produced compared with H2O2 control” value (NCTC 2544 cells) is reported as “decrease substantially comparable”.
